Structures can show the parent of a compound that is named as a salt. Where two headings read alike, the source gives them in different places. One block for each compound: values may come before it.
Assays:
[1] = target: T1, amyloid beta (Aβ) 1-42 peptide (Homo sapiens, UniProt P05067); assay: Thioflavin T spectrofluorescence assay, inhibition of Aβ1-42 aggregation; assay type: biochemical
T1 construct: amyloid beta (Aβ) 1-42 peptide; purchased Bachem
Procedure: A number of the small molecules were tested for their capacity to inhibit the aggregation of amyloid beta (Aβ) 1-42 peptide using a thioflavin T spectrofluorescence assay.
Aβ1-42 lyophilized powder (Bachem) was reconstituted in hexafluoroisopropanol (HFIP) to 1 mM. The peptide solution was sonicated for 15 min at room temperature, agitated overnight, and aliquots were placed into non-siliconized microcentrifuge tubes. The HFIP was then evaporated under a stream of argon. The resulting peptide film was dried under vacuum for 10 min, tightly sealed and stored at −80° C. until used.
To assay for the small molecule-mediated inhibition of Aβ1-42 aggregation, the small molecules were dissolved before each experiment in anhydrous dimethyl sulfoxide (DMSO, Sigma-Aldrich) to reach a concentration of 7.4 mM. Aβ1-42 peptide film was dissolved in DMSO to reach 400 μM. Assay solution in PBS buffer was prepared in non-siliconized incubation tubes to reach the following concentrations: 330 μM small molecule, 33 μM Aβ1-42, 10 μM thioflavin T (ThT), and 12.8% DMSO. Therefore, the final molar ratio of small molecule to Aβ1-42 was 10:1. A positive control without a small molecule was prepared to measure maximum RFU. A negative control without Aβ1-42 was prepared for each small molecule. 3-Aminopyrazole trimer (Trimer) was tested in all assays to ascertain reproducibility between independent experiments. The solutions were incubated for 24 hrs at 37° C., and the spectrofluorescence (relative fluorescence units; RFU) was read in six replicates in black 384-well assay plates (Perkin-Elmer) on a Perkin-Elmer FluoroCount spectrofluorometer. Inhibition of aggregation is expressed as mean % inhibition or ±1 standard deviation (SD) according to the following equation: […]
Cut-off criterium for the selection of functional molecules was defined at 50% inhibition capacity.
The small molecules were evaluated for their capacity to mediate inhibition of Aβ1-42 aggregation at a 10:1 small molecule to Aβ1-42 molar ratio. The results are expressed as mean±standard deviation of two independent experiments.

[2] = target: T2, Oregon Green labelled Aβ1-42 (Homo sapiens, UniProt P05067); assay: FCS-assay with 5 nM Oregon Green labelled Aβ-peptide (disaggregation of preformed aggregates); assay type: biochemical
T2 construct: DMSO-stock solutions of Oregon Green labelled Aβ1-42 1:1 with deionized water
T2 sequence (P05067 672-713 limits assumed): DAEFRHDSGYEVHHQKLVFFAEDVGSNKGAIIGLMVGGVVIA
Procedure: In order to analyse for the disaggregating properties of the compounds, preformed aggregates were used, which were induced straight before the FCS-measurement by diluting 500 nM DMSO-stock solutions of Oregon Green labelled Aβ1-42 1:1 with deionized water. The final concentration of Oregon Green labelled Aβ-peptide was 5 nM in 1×PBS and 3% DMSO. In order to improve the reproducibility of the measurements of the concentration dependencies of all samples were prepared fourfold.

[3] = prior-art compound, stated in background; cited from earlier work
[4] = prior-art compound, stated in background; cited from earlier work; remark: listed apart in the source

T1 sequence (P05067 672-713 limits assumed): as above

inhibition at 330 µM ([1]; 330 μM small molecule, 33 μM Aβ1-42 (10:1 molar ratio), 24 hrs at 37° C., mean ± SD of two independent experiments, read-out: % inhibition): 86.8 ± 2.9% | percentage of the "number of peaks" value obtained for the control reaction without added compound ([2]; 200 nM compound): 67.2% | percentage of the "peaks x height" value obtained for the control reaction without added compound ([2]; 200 nM compound): 53.3%
Compound: Fc1ccc(-c2cc(NCc3cccc(NCc4ccccc4)n3)n[nH]2)cc1 [Compound 2t, N-Benzyl-6-((5-(4-fluorophenyl)-1H-pyrazol-3-ylamino)methyl)pyridin-2-amine]

Compound: 3-Aminopyrazole trimer
carcinogenicity [3]: carcinogenic | mutagenicity [3]: mutagenic | metabolic stability [4]: metabolically unstable

Compound: Clc1ccc(-c2csc(NCc3cnc(NCc4ccccc4)s3)n2)cc1 [Compound 2ak, N-Benzyl-5-((4-(4-chlorophenyl)thiazol-2-ylamino)methyl)thiazol-2-amine]
inhibition at 330 µM ([1]; 24 h): 37.2 ± 14.8% | melting point: 105 to 106 °C

percentage of the "number of peaks" value obtained for the control reaction without added compound ([2]; 100 nM compound): 29.4% | percentage of the "peaks x height" value obtained for the control reaction without added compound ([2]; 100 nM compound): 26.6% | percentage of the "number of peaks" value obtained for the control reaction without added compound ([2]; 200 nM compound): 51.2% | percentage of the "peaks x height" value obtained for the control reaction without added compound ([2]; 200 nM compound): 45.1%
Compound: CCCNc1ccc(NCc2ccc(NCc3ccc(NCCC)nc3)nc2)nc1 [Compound 2c, N^5-Propyl-N^2-((6-((6-(propylamino)pyridin-3-yl)methylamino)pyridin-3-yl)methyl)pyridine-2,5-diamine]

Compound: c1ccc(CNc2ncc(CNc3nc(Cc4ccccc4)cs3)s2)cc1 (as salt: hydrochloride) [Compound 2ae, 4-Benzyl-N-((2-(benzylamino)thiazol-5-yl)methyl)thiazol-2-amine dihydrochloride]
melting point: 78 to 79 °C

— patent publication US8673940B2, “Compounds for the treatment of diseases associated with amyloid or amyloid-like proteins” (AC Immune SA, priority 2006, dated 2014)
